Here are results for one substance from patent US7020578B2, “Method for evaluating novel, stroke treatments using a tissue risk map” (The General Hospital Corporation, priority 2000, dated 2006).

Assay type in all cases: in vivo, human
Assay [1] is described as follows: phase I/II double-blind, randomized, placebo-controlled, dose-escalation trial of intravenous bFGF (FIBLAST) in stroke patients; change in NIH Stroke Scale score, admission vs discharge. The following applies: Patient 9*; 3 μg/kg; NIH SS (Initial) 2; follow-up 3 days.
Experiment in assay [2]: as above
The conditions noted are these: for number of treated patients with ΔNIH SS < 4 / number of treated patients with ΔNIH SS ≧ 4 (improved outcome): 2 × 2 contingency table. As to the method: Sixty-six patients were entered into a phase I/II trial of basic fibroblast growth factor (bFGF), FIBLAST. This trial was a double-blind, randomized, placebo-controlled, dose-escalation, and three month follow-up study of intravenous infusion of basic fibroblast growth factor (bFGF). Patients were randomized either to placebo or one of six different doses of bFGF ranging from […] to 150 μg/kg. Eleven patients were enrolled at Massachusetts General Hospital (MGH). Each patient underwent MRI imaging according to the standard MGH protocol within the first ten hours of symptom onset, and follow-up imaging at discharge.
The primary efficacy measure was change in NIH Stroke Scale (NIHSS) score measured at admission compared to that reported at discharge. Patients were classified as having an improved outcome if the NIH SS score decreased by more than four points. Two by two contingency tables were computed for the placebo versus the bFGF treated patients and a Fisher's Exact test performed.
Patients with greater than a four point change on the NIH SS score were classified as having a favorable outcome. A 2×2 contingency table, shown in Table 4, was evaluated for statistical independence between treated and placebo groups using Fisher's exact test.

Assay [3] in a line: GLM risk map of infarction from initial DWI/PWI compared with final infarct on follow-up imaging in bFGF trial patients. The following applies: Patient 7; full dose (150 ug/kg); 19 day follow-up FLAIR. The text has this:
A generalized linear model (GLM) of risk of tissue infarction was generated from retrospective studies of hyperacute cerebral ischemia patients who received diffusion and perfusion weighted imaging within twelve hours of presenting with symptoms. Only patients with cortical infarcts caused by occlusion of major cerebral arteries were included in the training data. […] The volumetric diffusion and perfusion data were coregistered utilizing an automated image registration software package (AIR 3.08). Utilizing a supervised learning algorithm and logistic regression, the parameters for the GLM were computed using coregistered data sets, as described in the previous section.
In one embodiment, a GLM algorithm is used to model tissue outcome. Tissue outcome y can be modeled as a binary variable (normal/abnormal) and therefore a Bernoulli probability density function assumed for its distribution. The logistic function can then be used to compute y as set forth below in Equation 1: [formula] where y is an estimate of the risk of infarction, x represents an input vector that can include an initial T2, ADC, rCBF (relative cerebral blood flow), rCBV (relative cerebral blood volume) and MTT (mean transmit time) data and B the calculated coefficients.
The dose of bFGF was correlated with the positive predictive value (PPV) of the GLM model described in the previous section. […]

Setting [4] is: patients enrolled at MGH, all doses pooled.
Setting [5] is: subset of 7 patients evaluated with GLM models.

On to basic fibroblast growth factor [bFGF], for which the “NIH SS (Discharge)” value came to 2 in assay [1]; 5 in assay [2] (Patient 3, 9 μg/kg, NIH SS (Initial) 15, follow-up 7 days); 11 in assay [2] (Patient 4, 27 μg/kg, NIH SS (Initial) 15, follow-up 7 days); 1 in assay [2] (Patient 5, 75 μg/kg, NIH SS (Initial) 6, follow-up 4 days); 14 in assay [2] (Patient 6, 150 μg/kg, NIH SS (Initial) 16, follow-up 13 days); 12 in assay [2] (Patient 7, 150 μg/kg, NIH SS (Initial) 17, follow-up 19 days). Further, the “NIH SS (Discharge)” value was determined as 2 in assay [2] (Patient 8*, 75 μg/kg, NIH SS (Initial) 4, follow-up 8 days); 3 in assay [2] (Patient 10*, 75 μg/kg, NIH SS (Initial) 4, follow-up 5 days); 20 in assay [2] (Patient 11*, 3 μg/kg, NIH SS (Initial) 18, follow-up 7 days). Moreover, the “number of treated patients with ΔNIH SS < 4” value in assay [2] (setting [4]) turned out to be 4; in assay [2] (setting [5]), 1. The “number of treated patients with ΔNIH SS ≧ 4 (improved outcome)” value in assay [2] (setting [4]) and in assay [2] (setting [5]) was 4 throughout. Further, the “statistical independence between treated and placebo groups, improved outcome (Fisher's exact test)” value was “No statistical significance” in assay [2] (Table 4, patients enrolled at MGH) and “No statistical significance” in assay [2] (Table 5, subset of 7 patients). The “outcome of penumbra predicted at risk of infarction by the risk map, on follow-up FLAIR” value in assay [3] was “does not go on to infarction”.
